Laboratory results as given in patent US20100056622A1, “Methods of Using Ramelteon to Treat Patients Suffering from a Variety of Neurodegenerative Diseases” (priority 2008, published 2010).

How the values were obtained:
[1] = system: liver function after hemorrhagic shock and reperfusion; conditions: rats; cited from earlier work
melatonin-2 receptor = target: T1, melatonin-2 receptor (Homo sapiens, UniProt P49286); conditions: cited from earlier work
T1 sequence (P49286 1-362): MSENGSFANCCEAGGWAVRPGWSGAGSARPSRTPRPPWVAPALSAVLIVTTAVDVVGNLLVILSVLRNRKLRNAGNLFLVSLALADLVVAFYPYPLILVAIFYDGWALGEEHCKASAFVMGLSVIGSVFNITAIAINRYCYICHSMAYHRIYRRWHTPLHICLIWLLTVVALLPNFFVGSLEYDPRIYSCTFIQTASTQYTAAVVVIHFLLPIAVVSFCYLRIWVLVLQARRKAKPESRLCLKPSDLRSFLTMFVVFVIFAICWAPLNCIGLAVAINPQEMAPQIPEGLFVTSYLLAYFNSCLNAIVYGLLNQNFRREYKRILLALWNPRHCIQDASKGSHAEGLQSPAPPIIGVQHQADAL

[2] = system: patient with Probable Parkinson's Disease Dementia; assay: Case report Example 3: ramelteon in a patient with Parkinson Disease and Probable Parkinson's Disease Dementia (person); format: in vivo, human; conditions: 10 weeks
Procedure: A person with an 18 year history of Parkinson Disease with subsequent development of Probable Parkinson's Disease Dementia was treated with ramelteon. The patient presented was experiencing dementia (i.e., memory loss, inattention, and dysexecutive syndrome), initial and interval insomnia, and typical features of Parkinson's disease (i.e., bradykinesia, rigidity, resting tremor, and postural instability). The patient was started on ramelteon, 8 mg each night at bedtime, and was seen again 10 weeks later. DRS-2 Initiation (i.e., categorical naming reflecting temporal lobe function) improved from a score of 31 to 34, Controlled Oral Word Association Test S Subtest (i.e., naming reflecting frontal lobe function) from 14 to 17, CLOX 1 (i.e., reflecting executive function) from 6 to 8, and ADCS-ADL disability (i.e., reflecting ability to perform activities of daily living) from 43 to 47. Thus, treatment with ramelteon was associated with improvements in temporal and frontal lobe—related naming, executive function, and overall ability to cognitively function.

[3] = system: patient with Probable Dementia with Lewy Bodies; assay: Case report Example 1: ramelteon in a patient with Probable Dementia with Lewy Bodies; format: in vivo, human; conditions: 2 week follow-up
Procedure: A person with a 4 year history of Probable Dementia with Lewy Bodies was treated with ramelteon as follows. The patient presented for treatment was experiencing poor sleep (i.e., interval insomnia with only 3-4 hours of sleep at night), fatigue, weight loss, poor concentration, anhedonia, irritability, social withdrawal, but no depressive mood or depressive cognitions. The patient would nap for an hour in the afternoons, consistent with Excessive Daytime Somnolence (EDS), nocturnal insomnia, or dopamine agonist therapy. They admitted to some anxiety daily in the afternoons lasting up to an hour, but had no somatic symptoms with this. Confusion was mild, but occurred once daily, and they had hallucinated only once, 6 weeks previously. There was significant nocturnal incontinence associated with the insomnia, with 4 or more episodes per night. The Neuropsychiatric Inventory Questionnaire (NPI-Q) was administered with the result being a score of 11 (delusions 1, agitation 2, irritability 1, nighttime behaviors 6, appetite 1). The […] al. Apathy Scale was also administered with the result being a score of 31. Ramelteon was administered beginning at 8 mg at bedtime and increased after 3 days to 16 mg by mouth each night at bedtime. At a 2 week follow-up, the patient began sleeping 7 hours each night, with only 2 episodes of incontinence at night.

[4] = system: mouse cerebellar granule cells; conditions: cited from earlier work
[5] = system: patient with Probable Parkinson's Disease Dementia; assay: Case report Example 2: ramelteon in a patient with Probable Parkinson's Disease Dementia (person); format: in vivo, human; conditions: after 2 weeks
Procedure: A person with a 10 year history of Probable Parkinson's Disease Dementia was treated with ramelteon as follows. The patient presented for treatment was experiencing dementia EDS, REM behavior disorder (i.e., RBD, manifest in acting out their dreams while asleep), and symptoms of Parkinson's disease (e.g., bradykinesia, rigidity, resting tremor, and postural instability). […] After 2 weeks of treatment with ramelteon, 8 mg each night at bedtime, scores had improved on the ESS from 19 to 16, DRS-2 (DRS-2 Conceptualization score) improved from 35 to 38, Memory from 24 to 25, Total from 138 to 141, and Trails (Trails B 68 to 60, Trails B-Trails A 36 to 28). Thus, treatment with ramelteon led to demonstrable improvement in excessive daytime sleepiness, concept formation (i.e., similitudes and differences), memory (i.e., spontaneous recall, factual knowledge, and recognition), overall cognition, and measures of executive function.

melatonin-1 receptor = melatonin-1 receptor (Homo sapiens, UniProt P48039); conditions: cited from earlier work
Sequence of melatonin-1 receptor (P48039 whole entry): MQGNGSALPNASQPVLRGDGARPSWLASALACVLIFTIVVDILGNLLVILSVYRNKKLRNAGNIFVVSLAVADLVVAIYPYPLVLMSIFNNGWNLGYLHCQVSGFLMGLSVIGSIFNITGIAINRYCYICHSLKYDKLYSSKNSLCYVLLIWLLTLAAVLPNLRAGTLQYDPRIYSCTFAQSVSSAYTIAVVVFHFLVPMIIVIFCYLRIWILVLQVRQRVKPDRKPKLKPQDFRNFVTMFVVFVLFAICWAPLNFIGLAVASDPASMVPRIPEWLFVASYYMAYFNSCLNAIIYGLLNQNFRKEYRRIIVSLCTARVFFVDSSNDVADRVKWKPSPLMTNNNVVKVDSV

CCC(=O)NCC[C@@H]1CCc2ccc3c(c21)CCO3 [ramelteon, (S)—N-[2-(1,6,7,8-tetrahydro-2H-indeno-[5,4-b]furan-8-yl)ethyl]propionamide]
recovery of the liver after reperfusion [1]: improved recovery of the liver after reperfusion
agonist potency relative to melatonin (melatonin-2 receptor): more potent at these sites than melatonin itself
CLOX 1 ([2]; 8 mg at bedtime, before treatment 6): 8
Controlled Oral Word Association Test S Subtest ([2]; 8 mg at bedtime, before treatment 14): 17
ADCS-ADL activities of daily living score ([2]; 8 mg at bedtime, before treatment 43): 47
DRS-2 Initiation score ([2]; 8 mg each night at bedtime, before treatment 31): 34
MMSE scores [3]: did not show a change
afternoon anxiety [3]: no longer of concern
anhedonia [3]: absent
appetite [3]: improved
confusional episodes, intensity [3]: reduced in intensity
hallucinations [3]: continued in remission
irritability [3]: markedly better
social withdrawal [3]: absent
sleep each night ([3]; 8 mg then 16 mg by mouth at bedtime, before treatment 3-4 hours): 7 h
NPI-Q appetite ([3]; before treatment 1): 1
NPI-Q delusions ([3]; before treatment 1): 0
NPI-Q agitation ([3]; before treatment 2): 0
episodes of incontinence at night ([3]; before treatment 4 or more episodes per night): 2 episodes
NPI-Q nighttime behaviors ([3]; before treatment 6): 1
NPI-Q score (total) ([3]; before treatment 11): 2
Apathy Scale (Starkstein et al.) score ([3]; before treatment 31): 37
confusional episodes, frequency ([3]; before treatment once daily): half as frequent
concentrations of BDNF in neurons [4]: increased concentrations of BDNF in neurons
DRS-2 Memory score ([5]; 8 mg at bedtime, before treatment 24): 25
DRS-2 Conceptualization score ([5]; 8 mg at bedtime, before treatment 35): 38
Trails B-Trails A ([5]; 8 mg at bedtime, before treatment 36): 28
Trails B ([5]; 8 mg at bedtime, before treatment 68): 60
DRS-2 Total score ([5]; 8 mg at bedtime, before treatment 138): 141
Epworth Sleepiness Scale (ESS) score ([5]; 8 mg each night at bedtime, before treatment 19): 16
agonist potency relative to melatonin (melatonin-1 receptor): more potent at these sites than melatonin itself
